These results are taken from patent publication US20140163073A1, “Small Molecule Inhibitors of P-type ATPases” (priority 2012, published 2014).

Values after ≈ are worked out from the molar mass of the structure shown. “Also recorded” adds a separate entry of the source. Like-named read-outs stand apart in the source and are kept apart here.

In data set [1] the test system is melanocytes. Put plainly: Inhibition of melanogenesis / pigment development in cultured melanocytes. The format is cell-based.
The subject of data set [2] is reconstructed human skin model. Kind of data set: Reconstructed human skin model. The format is cell-based. The source says:
(§1) PPIs had been known to function in the parietal cells to block the production of stomach acid by binding to at least one cysteine residue of the gastric proton pump, ATP4A, to thus effect long-lasting, semi-irreversible inactivation of the ATP4A. In order to bind to the ATPase, the PPI must be in its active form, and the PPI requires an acidic environment to undergo rearrangement to its active form.

For data set [3], the system named is normal human epidermal melanocytes. Put plainly: Melanogenesis and melanin content in normal human epidermal melanocytes. The format is cell-based.
From the text: as §1

The conditions of data set [4]: pH below 0.8; cited from earlier work.
Data set [5] deals with tyrosinase, MITF, TRP-2, Pme117 mRNA. Put plainly: mRNA levels of melanogenesis related proteins by RT-PCR in B16F10 mouse melanoma cells. The format is cell-based. The source says: The inventors next examined the effect of omeprazole on tyrosinase, the principal, rate-limiting enzyme in melanin synthesis.
Data set [6] deals with T1, ATP7A (Mus musculus, UniProt Q64430).
T1 construct: endogenous in cells; host or cells: B16F10 mouse melanoma cells
T1 sequence (Q64430 1-1491): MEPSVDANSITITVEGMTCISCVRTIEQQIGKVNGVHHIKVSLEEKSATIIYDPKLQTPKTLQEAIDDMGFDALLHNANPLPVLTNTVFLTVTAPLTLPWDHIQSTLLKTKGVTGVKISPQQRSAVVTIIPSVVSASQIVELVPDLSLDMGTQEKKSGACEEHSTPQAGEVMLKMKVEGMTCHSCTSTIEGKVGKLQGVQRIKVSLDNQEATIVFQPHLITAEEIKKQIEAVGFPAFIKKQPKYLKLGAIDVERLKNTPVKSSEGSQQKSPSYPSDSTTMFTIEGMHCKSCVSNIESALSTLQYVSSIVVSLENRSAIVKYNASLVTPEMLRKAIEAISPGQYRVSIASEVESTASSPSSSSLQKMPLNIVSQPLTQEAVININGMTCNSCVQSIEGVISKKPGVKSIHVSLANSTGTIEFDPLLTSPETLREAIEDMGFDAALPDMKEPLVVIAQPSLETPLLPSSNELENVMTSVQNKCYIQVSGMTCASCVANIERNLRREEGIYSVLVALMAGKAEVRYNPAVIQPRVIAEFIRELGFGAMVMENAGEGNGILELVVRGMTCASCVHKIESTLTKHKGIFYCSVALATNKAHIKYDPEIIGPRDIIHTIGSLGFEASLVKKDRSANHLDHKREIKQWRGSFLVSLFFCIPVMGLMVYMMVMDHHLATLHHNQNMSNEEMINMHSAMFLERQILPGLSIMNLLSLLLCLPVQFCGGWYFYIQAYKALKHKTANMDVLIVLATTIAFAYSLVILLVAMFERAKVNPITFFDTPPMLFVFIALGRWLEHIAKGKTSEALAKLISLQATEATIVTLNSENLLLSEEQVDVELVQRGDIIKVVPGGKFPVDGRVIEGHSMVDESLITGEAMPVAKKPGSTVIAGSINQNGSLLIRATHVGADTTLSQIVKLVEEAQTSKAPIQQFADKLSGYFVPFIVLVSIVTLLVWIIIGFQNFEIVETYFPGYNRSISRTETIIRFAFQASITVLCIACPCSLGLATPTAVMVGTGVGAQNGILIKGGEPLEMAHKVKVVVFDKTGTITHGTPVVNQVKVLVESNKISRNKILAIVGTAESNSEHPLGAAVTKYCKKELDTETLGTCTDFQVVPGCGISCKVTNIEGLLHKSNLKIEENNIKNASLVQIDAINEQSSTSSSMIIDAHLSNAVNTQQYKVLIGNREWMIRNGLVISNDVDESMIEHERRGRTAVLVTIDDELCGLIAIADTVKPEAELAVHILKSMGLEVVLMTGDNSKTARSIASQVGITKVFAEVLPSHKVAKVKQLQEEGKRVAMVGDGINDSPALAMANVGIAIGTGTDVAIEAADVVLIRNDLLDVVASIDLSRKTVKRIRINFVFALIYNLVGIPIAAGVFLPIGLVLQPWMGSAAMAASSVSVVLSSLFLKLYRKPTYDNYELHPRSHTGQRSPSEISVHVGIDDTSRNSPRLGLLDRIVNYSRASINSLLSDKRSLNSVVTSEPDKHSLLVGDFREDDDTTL
Kind of data set: Cu+2-stimulated ATP7A trafficking, co-localization assay. To be noted: B16F10 cells. The format is cell-based. The procedure:
Cells were incubated for 16 hours with […] omeprazole or the vehicle (DMSO) and then treated with Cu+2, or not treated, to determine if omeprazole could inhibit Cu+2-stimulated (CuCl2) ATP7A trafficking. […] ATP7A is seen as green following immunofluorescence protocols previously described (Petris et al., 1999), the Golgi stained red, and the nucleus stained blue. […]
This is consistent with the idea that omeprazole is metabolized to generate an inhibitory metabolite (such as hydroxy-omeprazole or perhaps the sulfonated metabolite) which then interacts with newly synthesized tyrosinase. This finding also is consistent with the hypothesis that omeprazole inhibits metallation of newly synthesized tyrosinase via ATP7A, rather than functioning as a direct inhibitor of tyrosinase per se; that is, a 72 hour incubation in omeprazole appears to be required so that preexisting tyrosinase can be turned over, allowing the inhibitory effect of omeprazole to be detected on newly synthesized tyrosinase.

As a reminder, the EC50 is the concentration needed to bring the measured effect to its halfway point.

Consider `C[C@@H]1O[C@@H](O[C@H]2C[C@@H](O)[C@]3(CO)[C@H]4[C@H](O)C[C@]5(C)[C@@H](C6=CC(=O)OC6)CC[C@]5(O)[C@@H]4CC[C@]3(O)C2)[C@H](O)[C@H](O)[C@H]1O` [ouabain], for which, in data set [1], the inhibition of melanogenesis result is recorded as “does not inhibit melanogenesis”.
Turning to `COc1ccc2[nH]c([S+]([O-])Cc3ncc(C)c(OC)c3C)nc2c1` (centres unmarked) [omeprazole, 5- or 6-methoxy-2-{[(4-methoxy-3,5-dimethylpyridin-2-yl)methyl]sulfinyl}-1H-benzimidazole], the “concentration at which effective” value in data set [2] turned out to be 50 µg/mL. The cytotoxicity entry in data set [3] was “low cytotoxicity”. Besides, the EC50 in data set [3] (Melanocyte, read-out: EC50 of melanogenesis inhibition) turned out to be 15 µg/mL (≈ 43.4 µM). Also, in data set [1] (cultured melanocytes), the “concentration that inhibits melanogenesis” value was in the range of 5 to 50 µg/mL. Also, the “reorganization (stability)” value in data set [4] is given as “quickly reorganizes into the sulfonamide analog”. Also, the “tyrosinase mRNA levels” value in data set [5] was “no effect”.
With `Cc1nc2c(OCc3ccccc3)cccn2c1CC#N` [SCH-28080], the “inhibition of Cu+2-stimulated ATP7A re-localization” value in data set [6] (100 μM for 16 hours, then 10 μM Cu+2 for 3 hours) was “inhibition; also recorded: very potent inhibitor”. Also, the “ATP7A trafficking without Cu+2 stimulation” value in data set [6] (SCH-28080, absence of Cu+2) is “no effect on ATP7A trafficking”. Besides, the values for the inhibition of melanogenesis result in data set [1] and in data set [1] (listed as SCH-20808) were “also inhibited melanogenesis” and “strongly inhibited melanogenesis”, respectively.
